US11401516B2, “Channel modulators” (AUCKLAND UNISERVICES LIMITED, priority 2014, dated 2022)
Entries after “also recorded” stand apart in the source; their conditions may differ.

Legend:
[1] = target: T1, Cx43 GJ plaques in ARPE-19 cells (Homo sapiens, UniProt P17302); test: Immunocytochemistry and quantification of Cx43 plaques; assay type: cell-based
T1 construct: a native human cell line, retinal pigmented epithelial cells (ARPE-19), which reportedly has an abundant expression of Cx43; endogenous in cells; host or cells: ARPE-19
T1 sequence (P17302 2-382 limits assumed): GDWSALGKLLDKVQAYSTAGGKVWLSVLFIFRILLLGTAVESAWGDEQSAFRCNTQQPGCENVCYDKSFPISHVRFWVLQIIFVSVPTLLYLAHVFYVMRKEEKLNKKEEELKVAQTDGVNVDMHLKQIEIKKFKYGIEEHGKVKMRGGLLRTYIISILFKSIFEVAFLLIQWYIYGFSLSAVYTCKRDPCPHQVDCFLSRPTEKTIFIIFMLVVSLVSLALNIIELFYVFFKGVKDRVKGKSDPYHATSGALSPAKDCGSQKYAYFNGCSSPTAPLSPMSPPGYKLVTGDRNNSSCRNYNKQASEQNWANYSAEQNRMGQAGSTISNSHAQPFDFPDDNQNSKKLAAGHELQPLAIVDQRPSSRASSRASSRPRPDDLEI
Procedure: In the below Examples 3, 6 and 7 using human retinal epithelial (ARPE-19) cells, the cells were grown in DMEM/F: 12 (Invitrogen), supplemented with 10% fetal calf serum (FCS), 100 units/mL of penicillin, 100 μg/mL of streptomycin, and 0.25 μg/mL of Fungizone® Antimycotic (Invitrogen).
Cells were seeded at 0.05×10^6 per well in 8-well sterile glass microscope chamber slides (Falcon, Corning Life Sciences), and the monolayer was labeled for connexin expression at ˜90-100% confluency. The following steps were conducted at room temperature. Cells were fixed in 4% paraformaldehyde (P6148, Sigma-Aldrich) in PBS with 0.1 mM CaCl2 for 10 min, and washed three times in PBS with 0.1 mM CaCl2. After blocking in 10% normal goat serum in PBS with 0.1 mM CaCl2 for one hour, cells were incubated overnight in primary antibody solution (rabbit anti-Cx43, Sigma C6219) diluted in PBS with 0.1 mM CaCl2. The chamber slides were then washed three times with PBS containing 0.1 mM CaCl2 for 10 minutes, and incubated for a further 45 minutes in goat anti-rabbit Alexa 568 conjugated secondary antibody (Invitrogen #A11036). Cells were counter labeled with DAPI for 5 minutes and washed three times with PBS containing 0.1 mM CaCl2. Chamber wells were removed and cells were mounted anti-fade medium (Citiflour AF-1). Dilution ratios for specified primary and secondary antibodies were used according to manufacturer's recommendations.
ARPE-19 cells were grown until confluent in 8-well glass chamber-slides (BD Falcon). Confluent monolayers of ARPE-19 cells were incubated at a final concentration of 5 to 500 μM) Tonabersat, and/or 10 mM NH4Cl (H. Qin, et al., The Journal of biological chemistry 278, 30005 (Aug. 8, 2003)) in culture medium for 1 or 6 hours. Cells were fixed in 4% PFA (ProSciTech) at pH 7.4 for 10 min at room temperature, permeabilized with 0.05% Triton-X100 in PBS, and incubated in 10% normal goat serum to block non-specific labelling. Cells were rinsed three times with PBS containing 0.1 mM CaCl2 between each fixation, permeabilization, and blocking steps. Cx43 polyclonal rabbit antibody (C6219, Sigma, 1:2000) was applied for 24 hours, followed by a goat anti-rabbit Alexa Fluor® 568 secondary antibody (Invitrogen, 1:200) for 45 minutes. Nuclei were counterstained with DAPI (Invitrogen) at 10,000-fold dilution for 5 mins, and mounted with Citifluor™ mounting medium. Images were visualised and captured using a 63× oil immersion lens on an Olympus FV1000 upright confocal laser scanning microscope and software. The transfluor feature in MetaXpress® Image acquisition and analysis software (Version 5.3.0.1, Molecular Devices) was used to automate and quantify the total area of Cx43 plaques per image. Results represent mean±standard error and statistical tests were conducted using one-way ANOVA and Tukey's multiple comparisons test.

[2] = test system: Cx43 hemichannel and pannexin channel mediated ATP release from hCMVEC cells; test: In vitro ischaemia injury ATP assay; assay type: cell-based, human; settings: for ATP release, percentage of the injury control: 2-hour injury
Procedure: Using an in vitro ischemia injury model, the Cx43 hemichannel and pannexin channel mediated ATP release was differentiated using the connexin hemichannel blocking mimetic peptide5 at 100 μM concentration (S. J. O'Carroll, et al., Cell communication & adhesion 15, 27 (May, 2008)) and 1 mM Probenecid (W. R. Silverman et al., The Journal of biological chemistry 284, 18143 (Jul. 3, 2009)).
Human cerebral microvascular endothelial cells (hCMVEC) were trypsinised (TrypLE Express, Life technologies) and plated at a density of 0.025×10^6 cells per well in a collagen-coated 12-well plate (1 μg/cm2) a day prior to the experiment. Cells were incubated in culture medium overnight. Hypoxic, acidic, ion-shifted Ringer injury solution that mimics ionic concentrations and acid-base shifts of the interstitial space in hypoxic-ischemic brains (A. Bondarenko, et al., Glia 34, 143 (Apr. 15, 2001)) was used to trigger hemichannel opening. The injury solution (in mM): 38 NaCl, 13 NaHCO3, 3 Na-gluconate, 65 K-gluconate, 38 NMDG-Cl, 1 NaH2PO4, 1.5 MgCl2, was bubbled in N2 gas (>99% purity, 20 L/min) for 5 minutes and pH adjusted to 6.6 using 5 M HCl. Control solution that mimics physiological conditions contained (in mM): 124 NaCl, 3 KCl, 26 NaHCO3, […], 1 NaH2PO4, 1.3 CaCl2, 1.5 MgCl2, and 10 Glucose, and pH 7.4 was adjusted using 5 M HCl (Bondarenko, 2001). […] Following a 2-hour injury the solutions were immediately placed on ice. In the injury and reperfusion model, hCMVEC cells were incubated in 500 μL of normal solution or injury solution for 2 hours at 37° C. in 95% O2 and 5% CO2. Following 2 hour injury, the solutions were discarded and replaced with 500 μL of the normal solution, or Tonabersat (10 μM) dissolved in normal solution, and were incubated for 2 hours at 37° C. in 95% O2 and 5% CO2. These solutions were also then immediately placed on ice. Peptide5 (100 μM)+/−Probenecid (1 mM) were used as controls for both injury and injury-reperfusion models. ATP concentration in the samples was determined using a Luciferin/luciferase bioluminescence reaction (ATP Determination Kit, Molecular Probes) and detected using a luminescence plate reader (VICTOR X, Perkin Elmer #2030-0010). Standard curves were generated in each experiment from an ATP standard (500 nM) to quantify the concentration of ATP in the test samples. The data is presented as mean±standard error relative to the injury or injury-reperfusion control. Statistically significant differences between samples were identified using one-way analysis of variance and Tukey's multiple comparisons test.

SMILES: CC(=O)c1ccc2c(c1)[C@H](NC(=O)c1ccc(F)c(Cl)c1)[C@H](O)C(C)(C)O2 [Tonabersat, N-[(3S,4S)-6-acetyl-3-hydroxy-2,2-dimethyl-3,4-dihydrochromen-4-yl]-3-chloro-4-fluorobenzamide]
- total area of Cx43 plaques per cell, normalized to untreated control ([1]; 5 μM, 10 μM or 50 μM, 1 hour): no significant reduction in Cx43 plaques
- Connexin43 gap junction labelling ([1]; 50 μM, 6 hours): most junctions have been internalised or lost; also recorded: total gap junction loss at cell-cell interfaces
- increase in Cx43 labelling with 10 mM NH4Cl compared to Tonabersat alone ([1]; 100 μM, 1 hour): 104.8%
- total area of Cx43 plaques per cell, normalized to untreated control ([1]; 100 μM, 1 hour): 52.8±5.6%
- total area of Cx43 plaques per cell, normalized to untreated control ([1]; 100 μM, 6 hours): 66.5±5.4%
- increase in Cx43 labelling with 10 mM NH4Cl compared to Tonabersat alone ([1]; 200 μM, 1 hour): 65.4%
- total area of Cx43 plaques per cell, normalized to untreated control ([1]; 200 μM, 1 hour): 63.2±5.6%
- total area of Cx43 plaques per cell, normalized to untreated control ([1]; 200 μM, 6 hours): 62.5±2.3%
- total area of Cx43 plaques per cell, normalized to untreated control ([1]; 500 μM, 6 hours): 60.2±13.6%
- Connexin43 gap junction labelling ([1]; 100 micromolar, 6 hours): very little Connexin43 labelling remains
- difference between CBX and 10 μM Tonabersat in 1 mM Probenecid [2]: 14.9±4%
- ATP release, percentage of the injury control ([2]; 0.1 μM Tonabersat in combination with 1 mM Probenecid): 85.9±2.4%
- ATP release from hCMVEC cells ([2]; 0.1 μM to 100 μM Tonabersat in the absence of 1 mM Probenecid): did not reduce ATP release
- ATP release, percentage of the injury control ([2]; 1 μM Tonabersat in combination with 1 mM Probenecid): 75.9±2.3%
- ATP release, percentage of the injury control ([2]; 10 μM Tonabersat in combination with 1 mM Probenecid): 58.5±1.9%
- ATP release, percentage of the injury control ([2]; 100 μM Tonabersat in combination with 1 mM Probenecid): 70.5±3.9%
- difference in inhibition, 10 μM versus 100 μM Tonabersat ([2]; each with 1 mM Probenecid): 12.1±3.2%
